The values that follow come from patent US20100292279A1, “Bis-(Sulfonylamino) Derivatives in Therapy” (ASTRAZENECA AB, priority 2009, published 2010).

In the experiment the target is T1, human mPGES-1 (Homo sapiens, UniProt O14684).
T1 construct: host or cells: microsomes
T1 sequence (O14684 1-152): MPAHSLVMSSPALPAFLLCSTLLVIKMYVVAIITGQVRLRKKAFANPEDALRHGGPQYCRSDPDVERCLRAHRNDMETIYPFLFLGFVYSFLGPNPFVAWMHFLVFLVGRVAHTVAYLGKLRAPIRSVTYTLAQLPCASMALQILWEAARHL
As to the kind of experiment: Microsomal prostaglandin E synthase biochemical assay. The settings on record: microsome preparation containing human mPGES-1; substrate PGH2 10.8 μM, GSH 2.5 mM, pH 6.8; PGE2 by HTRF; average of at least n=2. The procedure:
Compounds were tested as inhibitors of microsomal prostaglandin E synthase activity in microsomal prostaglandin E synthase assays and whole cell assays. These assays measure prostaglandin E2 (PGE2) synthesis which is taken as a measure of prostaglandin E synthase activity. Microsomal prostaglandin E synthase biochemical assays used microsomal prostaglandin E synthase-1 in microsomal preparations. The source of the microsomes can be for example interleukin-1β-stimulated human A549 cells (which express human mPGES-1) or Sf9 cells transfected with plasmids encoding human mPGES-1 cDNA.
A solution of test compound was added to a diluted microsome preparation containing is human mPGES-1 and pre-incubated for 15 minutes in potassium phosphate buffer pH 6.8 with cofactor glutathione (GSH). Corresponding solutions without test compound were used as positive controls, and corresponding solutions without test compound and without microsomes were used as negative controls. The enzymatic reaction was then started by addition of the substrate PGH2 in an organic solution (dry acetonitrile).
The reaction was stopped after one minute by adding an acidic solution (pH 1.9) of ferric chloride and citrate (final concentrations 7 mM and 47 mM respectively), by which the PGH2 was sequestered (the PGH2 is reduced to mainly 12-hydroxy heptadecatrineoic acid (12-HHT) which is not detected by the subsequent PGE2 detection step). The resulting solution was then pH neutralized by addition of potassium phosphate buffer, prior to diluting an aliquot of the resulting solution in a weak potassium phosphate buffer (50 mM, pH 6.8) containing 0.2% BSA (w/v). […] The PGE2 formed was quantified by use of a commercial HTRF based kit (catalogue #62PG2PEC or #62P2APEC from Cisbio International). 100% activity was defined as the PGE2 production in positive controls subtracted by the PGE2 production in the negative controls. IC50 values were then determined using standard procedures.

In the case of `CCCC(C)C#Cc1ccc(C(=O)NS(=O)(=O)c2ccccc2S(N)(=O)=O)cc1OCCOCC(F)(F)F` (stereo not shown) [Example 34, 4-(3-Methylhex-1-ynyl)-N-(2-sulfamoylphenylsulfonyl)-3-(2-(2,2,2-trifluoroethoxy)ethoxy)benzamide], half-maximal inhibition (IC50) required 12 nM.
As for `CCCC(C)C#Cc1ccc(C(=O)NS(=O)(=O)c2ccccc2S(N)(=O)=O)cc1OCCC(F)(F)F` (stereo not shown) [Example 35, 4-(3-Methylhex-1-ynyl)-N-(2-sulfamoylphenylsulfonyl)-3-(3,3,3-trifluoropropoxy)benzamide], the IC50 (usually the concentration that inhibits the measured activity by half) worked out at 14 nM.
Molecule `NS(=O)(=O)c1ccccc1S(=O)(=O)NC(=O)c1ccc(C#CC(C2CC2)C2CC2)c(OCCC(F)(F)F)c1` [Example 36, 4-(3,3-Dicyclopropylprop-1-ynyl)-N-(2-sulfamoylphenylsulfonyl)-3-(3,3,3-trifluoropropoxy)benzamide] came in with a half-inhibitory concentration (IC50) of 18 nM.
In turn, `CCCC(C)C#Cc1ccc(C(=O)NS(=O)(=O)c2ccccc2S(N)(=O)=O)cc1OC` (stereo not shown) [Example 37, 3-Methoxy-4-(3-methylhex-1-ynyl)-N-(2-sulfamoylphenylsulfonyl)benzamide] returned an IC50 of 35 nM.
The molecule `COc1cc(C(=O)NS(=O)(=O)c2ccccc2S(N)(=O)=O)ccc1C#Cc1ccc(C(F)(F)F)cc1` [Example 38, 3-Methoxy-N-(2-sulfamoylphenylsulfonyl)-4-((4-(trifluoromethyl)phenyl)ethynyl)benzamide] had an IC50 of 7.3 nM.
`NS(=O)(=O)c1ccccc1S(=O)(=O)NC(=O)c1ccc(C#Cc2ccc(C(F)(F)F)cc2)c(CO)c1` [Example 39, 3-(Hydroxymethyl)-N-(2-sulfamoylphenylsulfonyl)-4-((4-(trifluoromethyl)phenyl)ethynyl)benzamide] yielded an IC50 of 22 nM.
With `CCCC(C)C#Cc1ccc(C(=O)NS(=O)(=O)c2ccccc2S(N)(=O)=O)cc1` (stereo not shown) [Example 40, 4-(3-Methylhex-1-ynyl)-N-(2-sulfamoylphenylsulfonyl)benzamide], the IC50 amounted to 14 nM.
On to `NS(=O)(=O)c1ccccc1S(=O)(=O)NC(=O)c1ccc(C#Cc2ccc(C(F)(F)F)cc2)cc1` [Example 41, N-(2-Sulfamoylphenylsulfonyl)-4-((4-(trifluoromethyl)phenyl)ethynyl)benzamide], for which half-maximal inhibition (IC50) required 5.7 nM.
`NS(=O)(=O)c1ccccc1S(=O)(=O)NC(=O)c1ccc(C#CCCCCCl)cc1` [Example 42, 4-(6-Chlorohex-1-ynyl)-N-(2-sulfamoylphenylsulfonyl)benzamide] returned an IC50 of 37 nM.
`NS(=O)(=O)c1ccccc1S(=O)(=O)NC(=O)c1ccc(C#Cc2ccc(C(F)(F)F)cc2)nc1` [Example 43] gave an IC50 of 6.5 nM.
`CC(C)C#Cc1ncc(C(=O)NS(=O)(=O)c2ccccc2S(N)(=O)=O)cc1Cl` [Example 44, 5-Chloro-6-(3-methylbut-1-ynyl)-N-(2-sulfamoylphenylsulfonyl)nicotinamide] showed an IC50 of 59 nM.
In turn, `CC(C)C#Cc1ccc(C(=O)NS(=O)(=O)c2ccccc2S(N)(=O)=O)cc1OCCC(F)(F)F` [Example 45, 4-(3-Methylbut-1-ynyl)-N-(2-sulfamoylphenylsulfonyl)-3-(3,3,3-trifluoropropoxy)benzamide] yielded an IC50 of 18 nM.
As to `CC(C)C#Cc1ncc(C(=O)NS(=O)(=O)c2ccccc2S(N)(=O)=O)cc1F` [Example 46, 5-Fluoro-6-(3-methylbut-1-ynyl)-N-(2-sulfamoylphenylsulfonyl)nicotinamide], inhibition was half-maximal at 200 nM (IC50).
For `NS(=O)(=O)c1ccccc1S(=O)(=O)NC(=O)c1cnc(C#Cc2ccc(C(F)(F)F)cc2)c(F)c1` [Example 47, 5-Fluoro-N-(2-sulfamoylphenylsulfonyl)-6-((4-(trifluoromethyl)phenyl)ethynyl)nicotinamide], the half-maximal inhibitory concentration (IC50) was 6.5 nM.
Take `NS(=O)(=O)c1ccccc1S(=O)(=O)NC(=O)c1cnc(C#Cc2ccc(C(F)(F)F)cc2)c(OCCC(F)(F)F)c1` [Example 48]: half-maximal inhibition (IC50) required 10 nM.
Under `CC(C)C#Cc1ncc(C(=O)NS(=O)(=O)c2ccccc2S(N)(=O)=O)cc1OCCC(F)(F)F` [Example 49, 6-(3-Methylbut-1-ynyl)-N-(2-sulfamoylphenylsulfonyl)-5-(3,3,3-trifluoropropoxy)nicotinamide] stands 13 nM; under `Cc1cc(C(=O)NS(=O)(=O)c2ccccc2S(N)(=O)=O)ccc1C#CC(C)C` [Example 50, 3-Methyl-4-(3-methylbut-1-ynyl)-N-(2-sulfamoylphenylsulfonyl)benzamide], 17 nM.
Molecule `CC(C)C#Cc1ccc(C(=O)NS(=O)(=O)c2ccccc2S(N)(=O)=O)cc1OCCOCC(F)(F)F` [Example 51, 4-(3-Methylbut-1-ynyl)-N-(2-sulfamoylphenylsulfonyl)-3-(2-(2,2,2-trifluoroethoxy)ethoxy)benzamide] returned an IC50 of 26 nM.
As to `CC(C)C#Cc1ccc(C(=O)NS(=O)(=O)c2ccccc2S(N)(=O)=O)cc1OCC(F)F` [Example 52, 3-(2,2-Difluoroethoxy)-4-(3-methylbut-1-ynyl)-N-(2-sulfamoylphenylsulfonyl)benzamide], half-maximal inhibition (IC50) required 50 nM.
Turning to `CC(C)C#Cc1ccc(C(=O)NS(=O)(=O)c2ccccc2S(N)(=O)=O)cc1OCC(F)(F)F` [Example 53, 4-(3-Methylbut-1-ynyl)-N-(2-sulfamoylphenylsulfonyl)-3-(2,2,2-trifluoroethoxy)benzamide], it took 25 nM to reach half-maximal inhibition (IC50).
In the case of `CC(C)C#Cc1ccc(C(=O)NS(=O)(=O)c2ccccc2S(N)(=O)=O)cc1OC(F)(F)F` [Example 54, 4-(3-Methylbut-1-ynyl)-N-(2-sulfamoylphenylsulfonyl)-3-(trifluoromethoxy)benzamide], inhibition was half-maximal at 28 nM (IC50).
As for `CC(C)C#Cc1ccc(C(=O)NS(=O)(=O)c2ccccc2S(N)(=O)=O)cc1COCCC(F)(F)F` [Example 55, 4-(3-Methylbut-1-ynyl)-N-(2-sulfamoylphenylsulfonyl)-3-((3,3,3-trifluoropropoxy)methyl)benzamide], the IC50 turned out to be 80 nM.
In turn, `CC(C)C#Cc1ccc(C(=O)NS(=O)(=O)c2ccccc2S(N)(=O)=O)cc1COCC(F)(F)F` [Example 56, 4-(3-Methylbut-1-ynyl)-N-(2-sulfamoylphenylsulfonyl)-3-((2,2,2-trifluoroethoxy)methyl)benzamide] came in with an IC50 of 100 nM.
Consider `NS(=O)(=O)c1ccccc1S(=O)(=O)NC(=O)c1ccc(-c2cc3ccccc3o2)c(F)c1` [Example 57, 4-(Benzofuran-2-yl)-3-fluoro-N-(2-sulfamoylphenylsulfonyl)benzamide], for which half-maximal inhibition (IC50) required 8.5 nM.
Under `CC(C)C#Cc1ccc(C(=O)NS(=O)(=O)c2ccccc2S(N)(=O)=O)cc1OCC(F)(F)C(F)F` [Example 58, 4-(3-Methylbut-1-ynyl)-N-(2-sulfamoylphenylsulfonyl)-3-(2,2,3,3-tetrafluoropropoxy)benzamide] stands 24 nM; under `NS(=O)(=O)c1ccccc1S(=O)(=O)NC(=O)c1ccc(-c2cc3ccccc3o2)c(OCCC(F)(F)F)c1` [Example 59, 4-(Benzofuran-2-yl)-N-(2-sulfamoylphenylsulfonyl)-3-(3,3,3-trifluoropropoxy)benzamide], 8.5 nM; under `CC(C)(C)C#Cc1ccc(C(=O)NS(=O)(=O)c2ccccc2S(N)(=O)=O)cc1OCCC(F)(F)F` [Example 60, 4-(3,3-Dimethylbut-1-ynyl)-N-(2-sulfamoylphenylsulfonyl)-3-(3,3,3-trifluoropropoxy)benzamide], 30 nM.
`CC(C)(C)C#Cc1ccc(C(=O)NS(=O)(=O)c2ccccc2S(N)(=O)=O)cc1OCCOCC(F)(F)F` [Example 61, 4-(3,3-Dimethylbut-1-ynyl)-N-(2-sulfamoylphenylsulfonyl)-3-(2-(2,2,2-trifluoroethoxy)ethoxy)benzamide] displayed an IC50 of 27 nM.
As to `NS(=O)(=O)c1ccccc1S(=O)(=O)NC(=O)c1ccc(-c2cc3ccccc3o2)c(OCCOCC(F)(F)F)c1` [Example 62, 4-(Benzofuran-2-yl)-N-(2-sulfamoylphenylsulfonyl)-3-(2-(2,2,2-trifluoroethoxy)ethoxy)benzamide], the midpoint of inhibition, the IC50, lay at 9.1 nM.
`NS(=O)(=O)c1ccccc1S(=O)(=O)NC(=O)c1ccc(C#Cc2ccccc2)c(OCCOCC(F)(F)F)c1` [Example 63, 4-(Phenylethynyl)-N-(2-sulfamoylphenylsulfonyl)-3-(2-(2,2,2-trifluoroethoxy)ethoxy)benzamide] had an IC50 of 9.3 nM.
Take `CC(C)C#Cc1ccc(C(=O)NS(=O)(=O)c2ccccc2S(N)(=O)=O)cc1OCCCC(F)(F)F` [Example 64, 4-(3-Methylbut-1-ynyl)-N-(2-sulfamoylphenylsulfonyl)-3-(4,4,4-trifluorobutoxy)benzamide]: the IC50 was determined as 15 nM.
